Values of other authors as cited in patent US20100291629A1, “USE OF DELEUCOCYTATION FILTERS FOR DEFENSIN PURIFICATION” (ETABLISSEMENT FRANCAIS DU SANG, priority 2006, published 2010).

Assays:
neutrophils [1] = conditions: PMA 1 μg/ml
neutrophils [2] = tested on: neutrophils
isolated neutrophils = conditions: Ionomycin 1 μM; 30.10^6 isolated neutrophils

CCCCCCCCCCCCCC(=O)O[C@@H]1[C@@H](C)[C@@]2(O)[C@@H](C=C(CO)C[C@]3(O)C(=O)C(C)=C[C@@H]23)[C@@H]2C(C)(C)[C@]12OC(C)=O [PMA, phorbol myristate acetate]
defensins released (neutrophils [1]): 8%

IL8: Interleukine 8, used to treat neutrophils in vitro
defensin release, % of the defensin content in neutrophil granules (neutrophils [2]; IL8 50 ng/ml, 2.10^6 neutrophils): 10%

C[C@H](CCC(=O)O)C[C@H](C)C[C@H](C)C(=O)/C=C(\O)[C@H](C)C[C@H](C)C/C=C/[C@@H](C)[C@@H](O)[C@@H](C)[C@@H](O)C[C@@H]1CC[C@@](C)([C@H]2CC[C@@](C)([C@@H](C)O)O2)O1 [ionomycin, Ionomycin]
α-defensin exocytosis rate (isolated neutrophils): approximately 20%

CSCC[C@H](NC=O)C(=O)N[C@@H](CC(C)C)C(=O)N[C@@H](Cc1ccccc1)C(=O)O [fMLP, N-formylmethionyl-leucyl-phenylalanine]
defensin release, % of the content (neutrophils [2]; fMLP 10^−7 M): 17%
